# Columns and labels:
# Format in all cases: functional
# [1] = test system: Candida tropicalis; experiment: Antifungal activity against Candida tropicalis assessed as inhibition of microbial growth by two fold broth microdilution method
# [2] = test system: Candida albicans; experiment: Antifungal activity against Candida albicans assessed as inhibition of microbial growth by two fold broth microdilution method
# [3] = test system: Nakaseomyces glabratus; experiment: Antifungal activity against Candida glabrata assessed as inhibition of microbial growth by two fold broth microdilution method
# [4] = test system: Pichia kudriavzevii; experiment: Antifungal activity against Candida krusei assessed as inhibition of microbial growth by two fold broth microdilution method
# [5] = test system: Aspergillus fumigatus; experiment: Antifungal activity against Aspergillus fumigatus assessed as inhibition of microbial growth by two fold broth microdilution method
# [6] = test system: Candida albicans; experiment: Antifungal activity against fluconazole-resistant Candida albicans CaR assessed as inhibition of microbial growth by two fold broth microdilution method
# [7] = test system: Candida albicans; experiment: Antifungal activity against fluconazole-resistant Candida albicans 632 assessed as inhibition of microbial growth by two fold broth microdilution method
# [8] = test system: Candida albicans; experiment: Antifungal activity against fluconazole-resistant Candida albicans 904 assessed as inhibition of microbial growth by two fold broth microdilution method
# [9] = test system: Candida albicans; experiment: Antifungal activity against fluconazole-resistant Candida albicans 901 assessed as inhibition of microbial growth by two fold broth microdilution method
# [10] = test system: Candida albicans; experiment: Antifungal activity against fluconazole-resistant Candida albicans 17# assessed as inhibition of microbial growth by two fold broth microdilution method
MIC [1] [µg/mL],MIC [2] [µg/mL],MIC [3] [µg/mL],MIC [4] [µg/mL],MIC [5] [µg/mL],Structure (SMILES),MIC [6] [µg/mL],MIC [7] [µg/mL],MIC [8] [µg/mL],MIC [9] [µg/mL],MIC [10] [µg/mL]
0.25,0.25,0.5,1,> 16,O=C(/C=C/c1ccc2ccccc2c1)NCC(=O)NCc1ccncc1,,,,,
0.5,0.25,0.5,0.25,> 16,O=C(NCc1ccncc1)C(=O)N/N=C/c1ccc2ccccc2c1,,,,,
0.25,1,0.25,0.5,8,O=C(NCc1cccnc1)C(=O)N/N=C/c1ccc2ccccc2c1,,,,,
1,0.5,1,0.5,8,O=C(NCc1ccncc1)C(=O)N/N=C/c1ccc2c(c1)OCCO2,,,,,
0.5,2,0.5,4,> 16,CN(CC(=O)NCc1cccnc1)C(=O)/C=C/c1ccc2c(c1)OCCO2,,,,,
0.5,0.5,0.5,2,> 16,O=C(/C=C/c1cccc2ccccc12)NC(Cn1ccnc1)C(=O)NCc1ccccc1 (stereo not given),,,,,
2,0.5,0.5,2,> 16,O=C(/C=C/c1ccc2ccccc2c1)NCC(=O)NCc1cccnc1,,,,,
0.5,0.5,0.5,0.25,> 16,O=C(NCc1cccnc1)C(=O)N/N=C/c1cccc2ccccc12,,,,,
0.25,0.25,0.5,1,> 16,O=C(/C=C/c1ccc2c(c1)OCCO2)NC(Cn1ccnc1)C(=O)Nc1ccccc1 (stereo not given),,,,,
1,0.5,0.5,0.5,> 16,O=C(/C=C/c1ccc2c(c1)OCCO2)NCC(=O)NCc1ccncc1,,,,,
0.5,0.5,1,2,> 16,O=C(/C=C/c1ccc2c(c1)OCCO2)NC(Cn1ccnc1)C(=O)NCc1ccccc1 (stereo not given),,,,,

Structure (SMILES),MIC [1] [µg/mL],MIC [2] [µg/mL],MIC [3] [µg/mL],MIC [4] [µg/mL],MIC [5] [µg/mL],MIC [6] [µg/mL],MIC [7] [µg/mL],MIC [8] [µg/mL],MIC [9] [µg/mL],MIC [10] [µg/mL]
CN(CC(=O)NCc1ccncc1)C(=O)/C=C/c1ccc2ccccc2c1,0.25,0.25,0.125,0.25,8,8,8,> 16,> 16,> 16

# Reference: ChEMBL document CHEMBL4765419, “Design, synthesis and bioactivity evaluation of novel arylalkene-amide derivatives as dual-target antifungal inhibitors” (Eur J Med Chem, 2020)
